Reference: ChEMBL document CHEMBL3046079, “Synthesis, herbicidal activity, and mode of action of IR 5790” (J Agric Food Chem, 2001)
Calls of active or inactive are those of the source.

Experiments:
Solanum nigrum [1] = test: Post-emergence herbicidal activity against Solanum nigrum (black nightshade) assessed as injury at 15 g/ha applied at 15 days post-sowing measured after 15 days relative to control; type: functional
Oryza sativa [2] = test: Phytotoxicity against Oryza sativa (rice) assessed as injury at 50 g/ha applied as pre-emergent treatment at 24 hr post-sowing measured after 28 days relative to control; type: organism-based; details: in vivo, other, 672 h
Abutilon theophrasti [3] = test: Post-emergence herbicidal activity against Abutilon theophrasti (velvetleaf) assessed as injury at 150 g/ha applied at 15 days post-sowing measured after 15 days relative to control; type: functional
Persicaria maculosa [4] = test: Pre-emergence herbicidal activity against Persicaria maculosa assessed as injury at 50 g/ha applied at 24 hr post-sowing measured after 28 days relative to control; type: functional
Persicaria maculosa [5] = test: Post-emergence herbicidal activity against Persicaria maculosa assessed as injury at 150 g/ha applied at 15 days post-sowing measured after 15 days relative to control; type: functional
Setaria viridis = test: Pre-emergence herbicidal activity against Setaria viridis (green foxtail) assessed as injury at 150 g/ha applied at 24 hr post-sowing measured after 28 days relative to control; type: functional
Xanthium strumarium = test: Pre-emergence herbicidal activity against Xanthium strumarium (cocklebur) assessed as injury at 50 g/ha applied at 24 hr post-sowing measured after 28 days relative to control; type: functional
Sida spinosa [6] = test: Post-emergence herbicidal activity against Sida spinosa assessed as injury at 50 g/ha applied at 15 days post-sowing measured after 15 days relative to control; type: functional
Calystegia sepium [7] = test: Pre-emergence herbicidal activity against Calystegia sepium assessed as injury at 50 g/ha applied at 24 hr post-sowing measured after 28 days relative to control; type: functional
Ipomoea purpurea [8] = test: Post-emergence herbicidal activity against Ipomoea purpurea (common morning-glory) assessed as injury at 50 g/ha applied at 15 days post-sowing measured after 15 days relative to control; type: functional
Oryza sativa [9] = test: Phytotoxicity against Oryza sativa (rice) assessed as injury at 15 g/ha applied as post-emergent treatment at 15 days post-sowing measured after 15 days relative to control; type: organism-based; details: in vivo, other, 360 h
Papaver rhoeas [10] = test: Post-emergence herbicidal activity against Papaver rhoeas assessed as injury at 50 g/ha applied at 15 days post-sowing measured after 15 days relative to control; type: functional
Triticum aestivum = test: Phytotoxicity against Triticum aestivum (wheat) assessed as injury at 5 g/ha applied as post-emergent treatment at 15 days post-sowing measured after 15 days relative to control; type: organism-based; details: in vivo, other, 360 h
Sida spinosa [11] = test: Post-emergence herbicidal activity against Sida spinosa assessed as injury at 150 g/ha applied at 15 days post-sowing measured after 15 days relative to control; type: functional
Echinochloa crus-galli = test: Post-emergence herbicidal activity against Echinochloa crus-galli (barnyard grass) assessed as injury at 150 g/ha applied at 15 days post-sowing measured after 15 days relative to control; type: functional
[12] = biological target: T1, Putative protoporphyrinogen IX oxidase (Cucumis sativus) (UniProt C6L817); test: Inhibition of protoporphyrin oxidase in Cucumis sativus (cucumber) cotyledon disc assessed as light-dependent membrane damage at 10 uM incubated for 20 hr in dark followed by 8 hr in presence of light measured as electrolyte leakage relative to control
T1 sequence (whole entry): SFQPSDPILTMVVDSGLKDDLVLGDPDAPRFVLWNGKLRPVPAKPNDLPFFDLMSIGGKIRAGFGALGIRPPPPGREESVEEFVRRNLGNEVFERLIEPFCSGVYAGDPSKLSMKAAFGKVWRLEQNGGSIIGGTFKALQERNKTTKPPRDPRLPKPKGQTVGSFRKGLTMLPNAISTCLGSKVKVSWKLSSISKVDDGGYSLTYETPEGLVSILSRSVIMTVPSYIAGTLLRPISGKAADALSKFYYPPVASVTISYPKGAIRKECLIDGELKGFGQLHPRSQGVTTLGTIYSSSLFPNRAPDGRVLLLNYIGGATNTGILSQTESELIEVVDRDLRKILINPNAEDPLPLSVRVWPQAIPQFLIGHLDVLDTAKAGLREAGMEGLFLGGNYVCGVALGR

Chenopodium album = test: Pre-emergence herbicidal activity against Chenopodium album assessed as injury at 50 g/ha applied at 24 hr post-sowing measured after 28 days relative to control; type: functional
Sorghum bicolor [13] = test: Pre-emergence herbicidal activity against Sorghum bicolor assessed as injury at 150 g/ha applied at 24 hr post-sowing measured after 28 days relative to control; type: functional
Zea mays [14] = test: Phytotoxicity against Zea mays (maize) assessed as injury at 150 g/ha applied as pre-emergent treatment at 24 hr post-sowing measured after 28 days relative to control; type: organism-based; details: in vivo, other, 672 h
Oryza sativa [15] = test: Phytotoxicity against Oryza sativa (rice) assessed as injury at 50 g/ha applied as post-emergent treatment at 15 days post-sowing measured after 15 days relative to control; type: organism-based; details: in vivo, other, 360 h
[16] = Aqueous solubility of the compound; type: physicochemical; details: water
Matricaria chamomilla = test: Post-emergence herbicidal activity against Matricaria chamomilla assessed as injury at 150 g/ha applied at 15 days post-sowing measured after 15 days relative to control; type: functional
Ipomoea purpurea [17] = test: Pre-emergence herbicidal activity against Ipomoea purpurea (common morning-glory) assessed as injury at 150 g/ha applied at 24 hr post-sowing measured after 28 days relative to control; type: functional
Sida spinosa [18] = test: Pre-emergence herbicidal activity against Sida spinosa assessed as injury at 150 g/ha applied at 24 hr post-sowing measured after 28 days relative to control; type: functional
Avena fatua [19] = test: Post-emergence herbicidal activity against Avena fatua assessed as injury at 50 g/ha applied at 15 days post-sowing measured after 15 days relative to control; type: functional
Papaver rhoeas [20] = test: Pre-emergence herbicidal activity against Papaver rhoeas assessed as injury at 50 g/ha applied at 24 hr post-sowing measured after 28 days relative to control; type: functional
Solanum nigrum [21] = test: Post-emergence herbicidal activity against Solanum nigrum (black nightshade) assessed as injury at 5 g/ha applied at 15 days post-sowing measured after 15 days relative to control; type: functional
Calystegia sepium [22] = test: Post-emergence herbicidal activity against Calystegia sepium assessed as injury at 50 g/ha applied at 15 days post-sowing measured after 15 days relative to control; type: functional
Avena fatua [23] = test: Pre-emergence herbicidal activity against Avena fatua assessed as injury at 150 g/ha applied at 24 hr post-sowing measured after 28 days relative to control; type: functional
Zea mays [24] = test: Phytotoxicity against Zea mays (maize) assessed as injury at 150 g/ha applied as post-emergent treatment at 15 days post-sowing measured after 15 days relative to control; type: organism-based; details: in vivo, other, 360 h
Abutilon theophrasti [25] = test: Pre-emergence herbicidal activity against Abutilon theophrasti (velvetleaf) assessed as injury at 50 g/ha applied at 24 hr post-sowing measured after 28 days relative to control; type: functional
Alopecurus myosuroides = test: Pre-emergence herbicidal activity against Alopecurus myosuroides assessed as injury at 150 g/ha applied at 24 hr post-sowing measured after 28 days relative to control; type: functional
Sorghum bicolor [26] = test: Post-emergence herbicidal activity against Sorghum bicolor assessed as injury at 150 g/ha applied at 15 days post-sowing measured after 15 days relative to control; type: functional

C#CCOc1cc(-n2nc(C(C)(C)C)sc2=O)c(Cl)cc1Cl
0%: Activity (Oryza sativa [2]) | Activity (Persicaria maculosa [4]) | Activity (Xanthium strumarium) | Activity (Calystegia sepium [7]) | Activity (Oryza sativa [9]) | Activity (Papaver rhoeas [10]) | Activity (Triticum aestivum) | Activity (Zea mays [14]) | Activity (Oryza sativa [15]) | Activity (Ipomoea purpurea [17]) | Activity (Sida spinosa [18]) | Activity (Avena fatua [19]) | Activity (Solanum nigrum [21]) | Activity (Avena fatua [23]) | Activity (Zea mays [24]) | Activity (Abutilon theophrasti [25])
50%: Activity (Sida spinosa [6]) | Activity (Sorghum bicolor [13])
70%: Activity (Setaria viridis) | Activity (Sida spinosa [11]) | Activity (Chenopodium album) | Activity (Papaver rhoeas [20]) | Activity (Calystegia sepium [22]) | Activity (Alopecurus myosuroides)
10%: Activity (Solanum nigrum [1]) | Activity (Echinochloa crus-galli) | Activity (Matricaria chamomilla) | Activity (Sorghum bicolor [26])
1.1 µg/mL: solubility [16]
90%: Activity (Abutilon theophrasti [3]) | Activity (Persicaria maculosa [5]) | Activity (Ipomoea purpurea [8])
active: inhibition [12]
